These results are taken from PMC10920779, “Targeting P2Y14R protects against necroptosis of intestinal epithelial cells through PKA/CREB/RIPK1 axis in ulcerative colitis” (Nature Communications, 2024).

The subject of data set [1] is DSS-induced colitis in P2Y14R△IEC mice. As to the kind of experiment: DSS-induced colitis in P2Y14R△IEC mice treated with HDL-16 or PPTN. Type of data set: in vivo, mouse. The text has this:
(§1) Male, 7-8-week-old, P2Y14R^fl/fl Vil-cre (P2Y14R^∆IEC), P2Y14R^fl/fl Lyz2-cre and WT mice with C57BL/6 J background were used to establish experimental (acute) colitis model. P2Y14R^fl/fl C57BL/6 J mice were used as control for P2Y14R^fl/fl Vil-cre (P2Y14R^∆IEC) and P2Y14R^fl/fl Lyz2-cre mice. WT C57BL/6 J mice were used for the pharmacological study of HDL-16. Colitis was induced by dextran sodium sulfate (DSS; 36-50 kDa; 3% w/v; MP Biomedicals, Solon, Ohio, USA), added to the drinking water ad libitum for 7 days. Control mice received standard drinking water. The Disease Activity Index (DAI) was evaluated daily as described previously. After 7 days of DSS treatment, mice were euthanized by carbon dioxide inhalation and the colons were measured and then processed for histological analyses, homogenized to extract protein or RNA.
The DSS group and the P2Y14R^△IEC + DSS group were rectally administered with 100 μl vehicle (saline with 0.1% DMSO). The low-dose group of mice was given 10 μM HDL-16, 100 μl per mouse, while the high-dose group was given 20 μM HDL-16, 100 μl per mouse. […]
immunoblotting with corresponding antibodies in the IECs from DSS treated mice with HDL-16 or […]
the entire experimental period. d Body weight change and disease activity index evaluation of mice change during the disease process (n = 6 mice per group). e Effects of P2Y14R antagonists on P2Y14R△IEC mice mucosal barrier function as measured by serum levels of FITC-dextran based on intestinal permeability methods (n = 6 mice per group). f The length of colons from mice 7 days after DSS treatment (n = 6 mice per group). g The H&E staining in the colon tissues of DSS-treated mice (Scale bar = 200 μm). h The immunofluorescent images of colon tissues stained with Claudin-1, Occludin and ZO-1, the principal components of tight junction (Scale bar = 200 μm). i Phosphorylation MLKL as well as its protein levels were analyzed by immunoblotting with corresponding antibodies in colon tissues (n = 5 mice per group). The data represent the mean ± SD for b, e, f and i, the data represent the mean ± SEM for d. The p-values were determined by One-way analysis of variance (ANOVA) with Tukey multiple comparison test for e, f, i, and two-way analysis of variance (ANOVA) with Šídák's multiple comparisons test for b and d. For a, g and h, […]

Details of data set [2]: method as in PMID 24138077. The settings on record: cited from earlier work.
Data set [3] deals with DSS-induced colitis in mice. Nature of the data set: DSS-induced acute colitis in WT mice, P2Y14R antagonist treatment (body weight, DAI, colon length, H&E, tight junction staining, TEM). In kind it is in vivo, mouse. Also noted: DAI: scale not given here.
Description: as §1
The DSS group and the P2Y14R^△IEC + DSS group were rectally administered with 100 μl vehicle (saline with 0.1% DMSO). The low-dose group of mice was given 10 μM HDL-16, 100 μl per mouse, while the high-dose group was given 20 μM HDL-16, 100 μl per mouse.
For TEM, harvest fresh tissue blocks quickly within 1-3 minutes. […] Then tissues avoid light post fixed in 1% OsO4 in PBS for 2 h at room temperature. […] The samples were moved into a 65°C oven to polymerize for more than 48 h. Ultrathin sections were cut to 60-80 nm thin with an ultramicrotome UCT6 (Leica Microsystems, Vienna) and placed on 150 meshes cuprum grids (formvar carbon coated Cu grids) with formvar film. […] Micrographs were obtained with a Jeol JEM 1400 plus electron microscope (Jeol, USA) operating at 80 kV.
For histological assessment of colitis, colon specimens were fixed in 4% paraformaldehyde (PFA) and embedded in paraffin. Five-micrometer tissue sections were stained with H&E and examined for evidence of colitis as described previously. After the paraffin sections conventional dewaxing to water, put the sections into Hematoxylin solution for 3-5 min and treat the sections with Hematoxylin Differentiation solution. […] Finally, dehydrated the sections with gradient alcohol and xylene, and sealed with neutral gum. Images were captured with a microscope (BX53, Olympus).
Immunofluorescence staining was performed using paraffin-embedded tissues as mentioned before. For immunofluorescence, the paraffin slides were deparaffinized, rehydrated, blocked and treated according to a standard protocol. […] All slides were incubated with DAPI (S2110, Solarbio) for 10 min to show the location of the nucleus. Images were captured with a confocal microscope (LSM 800, Zeiss).

The mark [4] stands for this setting: high-dose, 20 μM, 100 μl per mouse.

Structures are written as SMILES. Where “and” joins values, the source holds several entries; their conditions need not be identical. Equal entries are not always repeated.

As for `O=C(O)c1cc(-c2ccc(C3CCNCC3)cc2)c2ccc(-c3ccc(C(F)(F)F)cc3)cc2c1` [PPTN, reference compound], the “Weight loss, diarrhea, rectal bleeding, mucosal barrier injury, inflammatory cell infiltration in P2Y14R△IEC mice” value in data set [1] (DSS-fed P2Y14R△IEC mice) is listed as “did not influence DSS-fed induced weight loss”. Also, the “p-MLKL in P2Y14R△IEC mice (western blot)” value in data set [1] (DSS-fed P2Y14R△IEC mice, colon tissues) is “did not affect DSS-induced upregulation of p-MLKL”. Besides, the Colon length in data set [1] (P2Y14R fl/fl vil-cre mice + DSS + PPTN, individual mice) was 7 cm and 5.4 cm and 6.3 cm and 5.6 cm and 5.8 cm and 6 cm. Also, in data set [1] (daily administration, DSS feeding P2Y14R△IEC mice), the “Improvement of DSS colitis in P2Y14R△IEC mice” value is “barely improvement”. Further, the Solubility result in data set [2] is “poor solubility”. Moreover, in data set [3] (DSS-treated mice, Day 1), the DAI came out at 0. For the same compound, the “Weight (%)” value in data set [3] (DSS-treated mice, Day 1) is 101.124% and 106.742% and 95.5056%; in data set [3] (DSS-treated mice, Day 2), 101.124% and 106.742% and 95.5056%; in data set [3] (DSS-treated mice, Day 3) it was 95.5056% and 106.742%; in data set [3] (DSS-treated mice, Day 4) it was 89.8876% and 101.124% and 95.5056%; in data set [3] (DSS-treated mice, Day 5), 89.8876% and 101.124% and 84.2697% and 95.5056%; in data set [3] (DSS-treated mice, Day 6), 84.2697% and 95.5056% and 89.8876%. In data set [3] (DSS-treated mice, Day 7), the “Weight (%)” value is 89.8876% and 95.5056% and 84.2697%. Further, in data set [3] (DSS-treated mice, Figure 7c), the “Colon length (cm)” value is 6.3 cm and 7.4 cm and 5.5 cm and 5.9 cm and 6.7 cm and 7.1 cm. Moreover, in data set [3] (daily treatment, 3% DSS mice), the Colitis symptoms entry was “significantly suppressed colitis symptoms”. In data set [3] (setting [4]), the “H&E staining: inflammatory infiltration and tissue damage” value is “improved DSS-induced inflammatory infiltration and tissue damage”. In data set [3] (setting [4]), the “Tight junction protein expression (immunofluorescence)” value is “stabilized the expression of tight junction protein Claudin-1, Occludin and ZO-1”. In data set [3] (high-dose, 20 μM, 100 μl per mouse, rectal, daily, 3% DSS 7 days), the “Body weight loss and DAI vs DSS-exposed mice” value was “dramatically less body weight loss and lower DAI”. For the same compound, in data set [3] (high-dose, 20 μM, 100 μl per mouse, rectal, 3% DSS 7 days), the “Colon length vs mice treated with DSS only” value is “significantly longer”.
